Source: publication PMC8954640, “Pyranodipyran Derivatives with Tyrosyl DNA Phosphodiesterase 1 Inhibitory Activities and Fluorescent Properties from Aspergillus sp. EGF 15-0-3” (Marine Drugs, 2022)
One block for each compound: values may come before it.

Experiments:
TDP1 = TDP1 (Homo sapiens, UniProt Q9NUW8); experiment: TDP1 inhibition fluorescence assay (quenched fluorescent single-stranded oligonucleotide substrate); type: biochemical; conditions: substrate 5′-FAM-AGGATCTAAAAGACTT-BHQ-3′, repeated at least three times, read-out: TDP1 Inhibition (IC50 ± SD)
Sequence of TDP1 (Q9NUW8 whole entry): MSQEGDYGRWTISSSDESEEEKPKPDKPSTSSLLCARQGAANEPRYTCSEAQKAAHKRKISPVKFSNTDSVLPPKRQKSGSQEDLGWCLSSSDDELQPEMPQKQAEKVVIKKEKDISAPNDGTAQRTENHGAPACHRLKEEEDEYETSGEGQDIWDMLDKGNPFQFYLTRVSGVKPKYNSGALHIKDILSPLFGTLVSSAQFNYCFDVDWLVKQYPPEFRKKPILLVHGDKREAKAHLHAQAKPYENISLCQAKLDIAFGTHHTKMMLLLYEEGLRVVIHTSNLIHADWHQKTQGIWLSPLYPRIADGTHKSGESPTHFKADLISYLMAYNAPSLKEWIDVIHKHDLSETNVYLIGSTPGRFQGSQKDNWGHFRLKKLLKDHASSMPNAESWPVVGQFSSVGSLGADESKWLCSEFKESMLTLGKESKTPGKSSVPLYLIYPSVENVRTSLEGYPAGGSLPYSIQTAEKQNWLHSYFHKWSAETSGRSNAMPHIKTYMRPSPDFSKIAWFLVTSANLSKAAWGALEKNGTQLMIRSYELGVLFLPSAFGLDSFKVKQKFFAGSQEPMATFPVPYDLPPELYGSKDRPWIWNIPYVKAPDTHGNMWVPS
Excerpt: Considering the chiral properties of compounds will affect their activity, all of the obtained compounds, including racemates and enantiomers, were screened for TDP1 inhibition through a fluorescence assay using a quenched fluorescent single-stranded oligonucleotide (5′-FAM-AGGATCTAAAAGACTT-BHQ-3′) as substrate. […] To further investigate the mechanism of the TDP1 inhibitory activity of (+)-6 and (−)-6, a hypothetical binding mode was built using in silico docking from the X-ray crystal structure of humanized TDP1-inhibitor (PDB: 6DJD) to evaluate the mode of interactions of (+)-6 and (−)-6 with TDP1. The inhibitor was docked into the binding site. The tricyclic core of (+)-6 binds to the DNA binding groove in the proximity of the catalytically important residue His263, indicating a potential π–π stacking interaction stabilizing the inhibitor TDP1 complex. Three hypothetical hydrogen bonds were observed between the phenol hydroxy group and the amide group of residue Asn516 (2.9 Å), the 1″-hydroxy group and Ser518 residue (3.0 Å), and the pyran O atom and Ser400 residue (3.5 Å), which might contribute to TDP1 inhibition. Similarly, the polycyclic core scaffold of (−)-6 also lied along the DNA binding groove (Figure 7B), and the H-bonds (3.1 Å) between the phenol hydroxy group and the amide group of residue Asn516 was also observed. In addition, two H-bonds formed between the 2″-hydroxyl group and Ser400 residue (2.5 Å) and the pyran oxygen atom and phenol hydroxy group of Tyr204 residue (3.1 Å). […] The gold score values of (+)-6 and (−)-6 were 55.62 and 44.90, respectively. […] The mechanism of the TDP1 inhibitory activity of (±)-6 remains to be validated by biophysical assays in further research.
The TDP1 inhibition was tested through a fluorescence assay according to a previously reported method. Detailed procedures are included in the Supporting Information. […]
Briefly, TDP1 solution (20 μL/well, 0.02 μL of purified TDP1 (100 nM) in 10 mM Tris-HCl, pH 7.5, 50 mM KCl, 1 mM EDTA, 1 mM DTT) was dispensed into wells of a white 384-well plate (NEST). The tested compound solution in DMSO (5 μL) was pinned into assay plates and incubated at room tempera-ture for 30 min. During this time, the plates were read by a Flash multimode reader (Molecular Devices) at Ex485/Em510 nm to identify false-positive compound that had autofluorescence. The linear oligonucle-otide substrate 5′-FAM-AGGATCTAAAAGACTT-BHQ-3′ (25 μL, 35 nM) was dispensed into the wells to start the reaction. The whole plate was immediately read five times using a kinetic read on the Flash […]
multimode reader (Molecular Devices) (Ex485/Em510 nm). TDP1 percentage inhibition of the tested com-pound was calculated by comparing the rate of increase in fluorescence throughout time for the com-pound-treated wells to that of DMSO control wells. […]

[1] = Measurement of fluorescent properties in MeOH; type: physicochemical; conditions: 300 μg/mL in MeOH; for Stokes Shift / λ em: λexc = 365 nm
Protocol: (§1) Each probe was prepared at 300 μg/mL in MeOH. The absorption spectra were recorded from 200 to 400 nm using a Chirascan circular dichroism spectrometer ([…]). The fluorescence spectra were recorded from 385 to 750 nm with an excitation wavelength of 365 nm using Edinburgh Instruments FLS1000. For UV-irradiated probes, each probe was exposed to 365 nm UV light from a handheld UV lamp for a certain time, and the fluorescence spectra were then recorded using the same method mentioned above.

[2] = Change in fluorescence emission upon photoirradiation with 365 nm UV light; type: physicochemical; conditions: MeOH
Protocol: In addition, the fluorescent properties of 1–6 were also evaluated. […] Meanwhile, compounds 1–6 with the concentration of […] were exposed to […] UV light, and their fluorescence emission spectra were recorded (Figure 10) as a control experiment because the assay used to assess TDP1 inhibition was a fluorescence assay. […] In addition, during the TDP1 inhibition assay, the tested compound solutions were read by a Flash multimode reader at Ex485/Em510 nm to identify false-positive compounds that had autofluorescence.
as §1

Compound: CCCCCC1OC(OC)c2c3c(cc(O)c2C1OC)C=C(OC)C(C)(C)O3 (racemic) [(±)-3, (±)-Aspergiletal A]
IC50 (TDP1): > 100 µM
ε [1]: 61279.01 M^–1cm^–1
λ abs [1]: 206 nm
φ F [1]: 0.0048
Stokes Shift [1]: 266 nm
λ em [1]: 472 nm
change of fluorescence with time upon 365 nm irradiation (photobleaching) [2]: significant loss of fluorescence with time

Compound: CCCCCC1OC(OC)c2c3c(cc(O)c2C1OC)CC(OC)C(C)(C)O3 (racemic) [(±)-4, (±)-Aspergiletal B]
IC50 (TDP1): > 100 µM
ε [1]: 208307.41 M^–1cm^–1
λ abs [1]: 225 nm
φ F [1]: 0.0649
Stokes Shift [1]: 203 nm
λ em [1]: 428 nm
change of fluorescence with time upon 365 nm irradiation (photobleaching) [2]: inert to photobleaching

Compound: CCCCCC1OC(OC)c2c3c(cc(O)c2C1OC)CC(O)C(C)(C)O3 (racemic) [(±)-5, (±)-Aspergiletal C]
IC50 (TDP1): > 100 µM
ε [1]: 106186.60 M^–1cm^–1
λ abs [1]: 203 nm
φ F [1]: 0.0482
Stokes Shift [1]: 229 nm
λ em [1]: 432 nm
change of fluorescence with time upon 365 nm irradiation (photobleaching) [2]: significant loss of fluorescence with time

Compound: CCCCCC1OC(OC)c2c3c(cc(O)c2C1OC)C=CC(C)(C)O3 (single isomer, unassigned; (-)) [(−)-1, eurotiumide G]
IC50 (TDP1): > 100 µM

Compound: CCCCC[C@H]1O[C@H](OC)c2c3c(cc(O)c2[C@H]1OC)C=CC(C)(C)O3 [(+)-1, eurotiumide G]
IC50 (TDP1): > 100 µM

Compound: CCCCC[C@H]1O[C@H](OC)c2c3c(cc(O)c2[C@@H]1OC)C=CC(C)(C)O3 [(+)-2, eurotiumide F]
IC50 (TDP1): > 100 µM

Compound: CCCCC[C@H]1O[C@H](OC)c2c3c(cc(O)c2[C@H]1OC)C=C(OC)C(C)(C)O3 [(+)-3, Aspergiletal A]
IC50 (TDP1): > 100 µM

Compound: CCCCC[C@H]1O[C@H](OC)c2c3c(cc(O)c2[C@H]1OC)C[C@H](OC)C(C)(C)O3 [(+)-4, Aspergiletal B]
IC50 (TDP1): > 100 µM

Compound: CCCCC[C@H]1O[C@H](OC)c2c3c(cc(O)c2[C@H]1OC)C[C@H](O)C(C)(C)O3 [(+)-5, Aspergiletal C]
IC50 (TDP1): > 100 µM

Compound: CCCCC[C@@H]1O[C@@H](OC)c2c3c(cc(O)c2[C@H]1OC)C=CC(C)(C)O3 [(−)-2, eurotiumide F]
IC50 (TDP1): > 100 µM

Compound: CCCCC[C@@H]1O[C@@H](OC)c2c3c(cc(O)c2[C@@H]1OC)C=C(OC)C(C)(C)O3 [(−)-3, Aspergiletal A]
IC50 (TDP1): > 100 µM

Compound: CCCCC[C@@H]1O[C@@H](OC)c2c3c(cc(O)c2[C@@H]1OC)C[C@@H](OC)C(C)(C)O3 [(−)-4, Aspergiletal B]
IC50 (TDP1): > 100 µM

Compound: CCCCC[C@@H]1O[C@@H](OC)c2c3c(cc(O)c2[C@@H]1OC)C[C@@H](O)C(C)(C)O3 [(−)-5, Aspergiletal C]
IC50 (TDP1): > 100 µM

The next lines start with results.

IC50 (TDP1): > 100 µM
ε ([1]; listed as 1): 125388.61 M^–1cm^–1
λ abs ([1]; listed as 1): 221 nm
φ F ([1]; listed as 1): 0.0392
Stokes Shift ([1]; listed as 1): 224 nm
λ em ([1]; listed as 1): 445 nm
change of fluorescence with time upon 365 nm irradiation (photobleaching) ([2]; listed as 1): increased substantially with time
Compound: CCCCCC1OC(OC)c2c3c(cc(O)c2C1OC)C=CC(C)(C)O3 (racemic) [(±)-1, (±)-Eurotiumide G]

IC50 (TDP1): 57.8 ± 2.2 µM
ε ([1]; listed as 2): 70590.11 M^–1cm^–1
λ abs ([1]; listed as 2): 223 nm
φ F ([1]; listed as 2): 0.0225
Stokes Shift ([1]; listed as 2): 241 nm
λ em ([1]; listed as 2): 464 nm
Compound: CCCCCC1OC(OC)c2c3c(cc(O)c2C1OC)C=CC(C)(C)O3 (racemic) [(±)-2, (±)-Eurotiumide F]
change of fluorescence with time upon 365 nm irradiation (photobleaching) ([2]; listed as 2): responded similarly to 1 but with a smaller magnitude improvement in fluorescence

IC50 (TDP1): 6.5 ± 0.73 µM
ε [1]: 127827.28 M^–1cm^–1
λ abs [1]: 225 nm
φ F [1]: 0.0416
Stokes Shift [1]: 199 nm
λ em [1]: 424 nm
Compound: CCCCCC1OC(OC)c2c3c(cc(O)c2C1OC)C(O)C(O)C(C)(C)O3 (racemic) [(±)-6, (±)-Aspergiletal D]
change of fluorescence with time upon 365 nm irradiation (photobleaching) [2]: significant loss of fluorescence with time

IC50 (TDP1): 27.8 ± 1.73 µM
Compound: CCCCC[C@H]1O[C@H](OC)c2c3c(cc(O)c2[C@H]1OC)[C@H](O)[C@H](O)C(C)(C)O3 [(+)-6, Aspergiletal D]

IC50 (TDP1): 37.3 ± 3.63 µM
Compound: CCCCC[C@@H]1O[C@@H](OC)c2c3c(cc(O)c2[C@@H]1OC)[C@@H](O)[C@@H](O)C(C)(C)O3 [(−)-6, Aspergiletal D]
